Where a SMILES comes first, the peptide text is derived from it. Bridges are numbered along the chain shown (N, C = ends). Where no end group is shown, it is not given here.
What was measured:
[1] = tested on: Acinetobacter baumannii ATCC 19606; assay: Antimicrobial growth inhibition (CO-ADD); assay type: cell-based; conditions: absorbance at 600 nm; for Max response ± SEM: percentage growth inhibition, mean ± SEM; for MIC: sigmoidal dose-response fit of growth inhibition
Protocol: (§1) Antimicrobial and cytotoxicity assays were performed by CO-ADD (The Community for Antimicrobial Drug Discovery, Institute for Molecular Bioscience, The University of Queensland). […] Percentage growth inhibition was calculated using negative controls (media only) and positive controls (no peptide). For the hemolysis assays, human whole blood was washed three times with 3 volumes of 0.9% NaCl and then resuspended in 0.9% NaCl to a concentration of 0.5 × 10^8 cells/mL. Cells were incubated for 1 h at 37°C with or without the peptide. After incubation, plates were centrifuged at 1000 g for 10 min to pellet cells and debris and hemolysis determined by measuring the supernatant absorbance at 405 nm.

[2] = tested on: Escherichia coli ATCC 25922; assay: Antimicrobial growth inhibition (CO-ADD); assay type: cell-based; conditions: absorbance at 600 nm; for Max response ± SEM: percentage growth inhibition, mean ± SEM; for MIC: sigmoidal dose-response fit of growth inhibition
Protocol: as §1

[3] = tested on: Klebsiella pneumoniae ATCC 700603; assay: Antimicrobial growth inhibition (CO-ADD); assay type: cell-based; conditions: absorbance at 600 nm; for Max response ± SEM: percentage growth inhibition, mean ± SEM; for MIC: sigmoidal dose-response fit of growth inhibition
Protocol: as §1

[4] = tested on: Pseudomonas aeruginosa ATCC 27853; assay: Antimicrobial growth inhibition (CO-ADD); assay type: cell-based; conditions: absorbance at 600 nm; for Max response ± SEM: percentage growth inhibition, mean ± SEM; for MIC: sigmoidal dose-response fit of growth inhibition
Protocol: as §1

[5] = tested on: Staphylococcus aureus ATCC 43300; assay: Antimicrobial growth inhibition (CO-ADD); assay type: cell-based; conditions: for Max response ± SEM: percentage growth inhibition, mean ± SEM; for Max response ± SEM / MIC: absorbance at 600 nm; for MIC: sigmoidal dose-response fit of growth inhibition
Protocol: as §1

[6] = tested on: Candida albicans ATCC 90028; assay: Antifungal growth inhibition (CO-ADD); assay type: cell-based; conditions: absorbance at 530 nm; for Max response ± SEM: percentage growth inhibition, mean ± SEM; for MIC: sigmoidal dose-response fit of growth inhibition
Protocol: as §1

[7] = tested on: Cryptococcus neoformans var. grubii H99; ATCC 208821; assay: Antifungal growth inhibition (CO-ADD); assay type: cell-based; conditions: for Max response ± SEM: percentage growth inhibition, difference in absorbance 600 and 570 nm after resazurin, 35°C 2 h, mean ± SEM; for MIC: sigmoidal dose-response fit of growth inhibition, resazurin read-out
Protocol: as §1

HEK293T cells = assay: Cell viability assay, resazurin; assay type: cell-based; conditions: 100 μM peptide
Protocol: (§2) In addition to the cytotoxicity assays performed by CO-ADD, we screened the synthetic peptides for toxicity in cell viability assays using HAP1, MM96L, and HEK293T cells. peptides were reconstituted in 100% DMSO then diluted in cell media (HAP1: IMDM (Sigma Aldrich) with 10% FBS and 1% Penicillin/Streptomycin (P/S); MM96L: RPMI (Gibco) with 10% FBS, 1% P/S and 1% GlutaMAX (Gibco); HEK293T: DMEM high glucose (Gibco), with 10% FBS and 1% P/S. Trypsinized cells ([…]) were seeded in each well of a 96-well plate. 0.01 to 1000 μM peptide was added to each well after 24 h, and the cells incubated for an additional 74 h. After incubation, the medium was aspirated from each well and 150 μL of fresh medium containing a 0.002% solution of resazurin (Sigma-Aldrich) was added to the wells and incubated for 4 h at 37 °C. The absorbance was measured at 570 nm using a microplate spectrophotometer (FLUOstar Omega, BMG Labtech, Germany). Percentage cell viability at concentrations of 10 and 100 μM peptide were compared with negative control by one-way ANOVA Dunnett’s multiple comparisons test (GraphPad Prism8).

[8] = tested on: MM96L cells (melanoma cell line); assay: Cell viability assay, resazurin; assay type: cell-based; conditions: 100 μM peptide
Protocol: as §2

panel of microbes = assay: Antimicrobial screening, summary over the panel of microbes; assay type: cell-based; conditions: all strains of the panel (for Rm54a and Rm55a: strains other than S. aureus)
Protocol: as §1

[9] = tested on: Human embryonic kidney cells ATCC CRL-1573; assay: Cytotoxicity assay (CO-ADD), resazurin; assay type: cell-based; conditions: percentage growth inhibition, resazurin fluorescence, 37°C 5% CO2; mean ± SEM
Protocol: as §1

Human red blood cells = assay: Hemolysis assay (CO-ADD); assay type: cell-based; conditions: hemolysis, washed human blood 0.5 × 10^8 cells/mL in 0.9% NaCl, 1 h at 37°C, supernatant absorbance at 405 nm; mean ± SEM
Protocol: as §1

HEK = assay: Ion permeability HEK; assay type: cell-based, Human; conditions: ions listed as permeant; - = none
F11 = assay: Ion permeability F11; assay type: cell-based, mouse; conditions: ions listed as permeant; - = none
[10] = tested on: Female fruit flies (D. melanogaster strain Canton-S); assay: Fruit fly injection assay (lethality, paralysis, climbing); assay type: in vivo, Drosophila melanogaster
Protocol: Female fruit flies (D. melanogaster strain Canton-S) were injected four to six days post-emergence. Female flies were used because their larger size makes injection easier. Groups of eight female flies were assayed in triplicate for each dose tested. Injection needles were formed from glass capillary tubes (#3-000-203-G/X, Drummond, Birmingham, AL, USA) using a micropipette puller (Sutter Instrument Co. Model P-97), with the fine tip manually trimmed afterwards using scissors. Needles then were filled with mineral oil, connected to a Nanoliter 2000 microinjector ([…], Bensenville, IL USA) equipped with a foot pedal, and ~1 μL of peptide solution or water aspirated. Each group of flies were immobilized by cooling for approximately 2 min on ice, and then decanted on the top of the ‘injection stage’, a petri dish filled with ice. Under a dissecting microscope, each fly was carefully impaled on the lateral thorax behind the wing, and 50.6 nL of venom peptide or water was injected. After injection, each group of flies were returned to their 5 mL plastic tube at room temperature and their behavior observed.

HAP1 cells = assay: Cell viability assay, resazurin; assay type: cell-based
Protocol: as §2

[11] = tested on: F11 (mouse neuroblastoma × rat dorsal root ganglion (DRG) neuron hybrid) cells; assay: Calcium imaging of F11 cells (FLIPR); assay type: cell-based; conditions: increase in [Ca2+]i, max-min fluorescence over 300 s; read-out: EC50 (F11 cells, Table S2)
Protocol: F11 (mouse neuroblastoma × rat dorsal root ganglion (DRG) neuron hybrid) cells were cultured as previously described. Cells were maintained on Ham’s F12 media supplemented with 10 % fetal bovine serum, 100 μM hypoxanthine, 0.4 μM aminopterin, and 16 μM thymidine (Hybri-MaxTM, Sigma Aldrich). 384-well imaging plates (Corning, Lowell, MA, USA) were seeded 48 h prior to imaging resulting in 90 – 95% confluence at imaging. Cells were incubated for 30 min with Calcium 4 assay component A, as per the manufacturer’s instructions (Molecular Devices, Sunnyvale, CA) in physiological salt solution (PSS; composition in mM: 140 NaCl, 11.5 D-glucose, 5.9 KCl, 1.4 MgCl2, 1.2 NaH2PO4, 5 NaHCO3, 1.8 CaCl2, 10 HEPES) at 37°C. […] Signals were read every second for 10 s before, and 300 s after, the addition of peptides in PSS supplemented with 0.1% bovine serum albumin. All data represent mean ± SEM of a representative assay in triplicate. Fluorescence changes on peptide addition were compared to addition of negative control solution (0.1% BSA in PSS). The resulting maximum-minimum fluorescence in the 300 s period after peptide addition was recorded as the response.

[12] = tested on: House crickets (Acheta domesticus); assay: Insect incapacitation assay, house crickets; assay type: in vivo
Protocol: House crickets (A. domesticus; Pisces Live Food, QLD, Australia) (average mass 50 mg), were injected intra-abdominally with 40 nmol/g of each synthetic peptide (in 2 μL water). […] Lethality was assessed at 24 h. […] To calculate dose-response curves, a four-parameter Hill equation with variable Hill slope was fitted to the data (GraphPad Prism 8.02). All data are expressed as the mean ± standard error of the mean (SEM) and are representative of at least three independent data points. The percentage of crickets incapacitated by a dose of 40 nmol/g, was compared with negative control (water injection) by one-way ANOVA Dunnett’s multiple comparisons test (GraphPad Prism8).

Row | Compound | Max response ± SEM [1] | MIC [1] [µM] | Max response ± SEM [2] | MIC [2] [µM] | Max response ± SEM [3] | MIC [3] [µM] | Max response ± SEM [4] | MIC [4] [µM] | Max response ± SEM [5] | MIC [5] [µM] | Max response ± SEM [6] | MIC [6] [µM] | Max response ± SEM [7] | MIC [7] [µM] | Cytotoxicity against HEK293T cells (HEK293T cells) | Cytotoxicity against MM96L cells [8] | Growth inhibition over the microbial strains examined (panel of microbes) | ion permeability HEK (HEK) | ion permeability F11 (F11) | other results
1 | CC[C@H](C)[C@H](NC(=O)[C@H](CCC(=O)O)NC(=O)[C@H](CCC(N)=O)NC(=O)[C@H](CCSC)NC(=O)[C@H](CC(N)=O)NC(=O)[C@@H](N)CO)C(=O)N[C@@H](CCSC)C(=O)N[C@@H](CCCCN)C(=O)N[C@@H](CCCCN)C(=O)N[C@@H](CC(C)C)C(=O)N[C@H]1CSSC[C@@H](C(=O)N[C@@H](CCCCN)C(=O)N[C@@H](CCSC)C(=O)N[C@@H](CC(C)C)C(=O)NCC(=O)N[C@@H](CC(C)C)C(=O)O)NC(=O)[C@H](CCSC)NC(=O)[C@H](Cc2c[nH]c3ccccc23)NC(=O)[C@H](C)NC(=O)[C@@H]2CCCN2C(=O)[C@H](CCSC)NC(=O)[C@H](CCCCN)NC(=O)[C@H](CCCCN)NC(=O)[C@H](CC(=O)O)NC(=O)[C@H]([C@@H](C)O)NC1=O [Rm9a] (H-SNMQEIMKKLCTDKKMPAWMCKMLGL-OH; disulfide 11-21; N-terminus assumed) | 9 ± 0 | >11 | 3 ± 2 | >11 | 5 ± 2 | >11 | 5 ± 3 | >11 | 3 ± 5 | >11 | 1 ± 2 | >11 | -86 ± 5 | >11 | cytotoxic to both HEK293T and MM96L cells | cytotoxic to both HEK293T and MM96L cells | no inhibitory activity |  |  | 
2 | LWPFLISLIPTVIDLARNL-NH2 [Rm54a] | 22 ± 3 |  | 10 ± 1 |  | 10 ± 2 |  | 16 ± 1 |  | 102 ± 1 |  | 10 ± 3 |  | -15 ± 2 |  | cytotoxic against HEK293T cells | not the melanoma cell line MM96L | not affecting any of the other strains examined | Ca2+,Na+,Th+ | Ca2+,Na+,Th+ | Inhibition of S. aureus (in words) [5]: complete inhibition; Max response ± SEM [9]: 95 ± 0; Max response ± SEM (Human red blood cells): 95 ± 6; Motor behavior (climbing assay) ([10]; 5 nmol/g injected, climbing assay 5 min after injection, significant versus control): disrupted motor behavior; Cytotoxicity to HAP cells (HAP1 cells): cytotoxic to HAP cells; HAP cell viability (HAP1 cells; 10 μM peptide, n = 3 per group): significantly reduced HAP cell viability
3 | VAPIVAMAGLGLFAAAVAGLDWLSKKV-NH2 [Rm1a] | 3 ± 2 | >12 | 9 ± 3 | >12 | 0 ± 2 | >12 | -2 ± 9 | >12 | -19 ± 7 | >12 | 67 ± 4 | >12 | 36 ± 7 | >12 |  |  |  | Ca2+,Na+,Th+ | Ca2+,Na+,Th+ | EC50 [11]: 5.7 µM; Lethality in crickets at lowest dose tested ([12]; 40 pmol/g, intra-abdominal injection, lethality assessed at 24 h): ultimately lethal; Incapacitation of crickets ([12]; 40 nmol/g, intra-abdominal injection, observed 30 min): able to incapacitate crickets; Onset of incapacitation in crickets ([12]; 40 and 4 nmol/g, delayed at lower doses): immediate; PD50 30 min (dose required to paralyze 50% of crickets 30 min after injection) ([12]; intra-abdominal injection, n = 3 per group): 0.3 nmol/g; Flies dead ([10]; 50 pmol/g injected, mean ± SD): 25.0 ± 12.5%; Flies paralyzed ([10]; 50 pmol/g injected, mean ± SD): 95.8 ± 7.2%; Instant death of flies ([10]; 5 nmol/g injected, groups of eight female flies in triplicate, mean ± SD): 100 ± 0%; LD50 5 min (dose required to kill 50% of flies 5 min after injection) ([10]; D. melanogaster, 5 min after injection): 0.17 nmol/g; PD50 5 min (dose required to paralyze 50% of flies within 5 min) ([10]; D. melanogaster, within 5 min): 23 pmol/g

From paper PMC9827630, “Intra-colony venom diversity contributes to maintaining eusociality in a cooperatively breeding ant” (BMC Biology, 2023)
